The target of one data set is T1, hTNF/hTNFR1 complex (Homo sapiens, UniProt P01375).
T1 construct: stabilise an asymmetrical form of the soluble TNF trimer; host or cells: BV (baculovirus) for hTNFR1
The data set can be described thus: Analytical size exclusion chromatography of TNF:TNFR1 stoichiometry. The class given is biochemical. As to the method: A stock of compound bound to human (h) TNF was prepared by pre-incubating hTNF (300 μM, molecular weight based on the homotrimer) overnight at 4 °C with UCB-5307 at a final concentration range from 90 μM to 690 μM, maintaining a constant DMSO concentration of 1%. The compound-bound hTNF was incubated for 1 h at 22 °C with hTNFR1 at a 3.2-fold molar excess over homotrimers (final concentrations: hTNFR1 240 μΜ, hTNF 75 µM). Identical samples were prepared with DMSO only, giving a final DMSO concentration of 0.25% for both sets of samples. Alternatively, a fully assembled hTNF/hTNFR1 complex (3 receptors per homotrimer) was formed by incubating hTNF with a 3.2-fold molar excess of hTNFR1 for 1 h at 22 °C. The TNF/TNFR1 complex was then incubated overnight at 4 °C with UCB-5307 at a final concentration range from 90 µM to 690 µM. Samples were subject to analytical size exclusion using HPLC. Injection volumes of 50 µL were separated on a TSK G3000SW L × I.D. 30 cm × 7.5 mm column (10 µm particle size) pre-equilibrated in 10 mM HEPES, pH 7.5, 150 mM NaCl.

The target of the next data set is T2, TNF (L57F) (Homo sapiens, UniProt P01375, L133F).
T2 construct: Human TNF (CID2043, UniProt P01375 residues 77–233); 6XHis-Smt3 (N, cleaved yes); host or cells: E. coli
T2 sequence (P01375 77-233 L133F): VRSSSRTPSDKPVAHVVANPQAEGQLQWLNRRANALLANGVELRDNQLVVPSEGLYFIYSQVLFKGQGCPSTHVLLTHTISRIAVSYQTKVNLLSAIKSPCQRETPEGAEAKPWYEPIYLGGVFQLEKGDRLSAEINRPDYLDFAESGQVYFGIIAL
The data set can be described thus: HEK reporter gene assay, L57F TNF. The class given is cell-based. Particulars: 10 pM L57F TNF; HEK NFκΒ reporter. As for the experimental part:
Stimulation of HEK-293 cells by TNF leads to activation of the NF-κB pathway. The HEK-Blue^TM CD40L SEAP (secreted embryonic alkaline phosphatase) reporter cell line used to determine TNF activity (InvivoGen, #hkb-CD40, cells were described as mycoplasma free when purchased and were tested using Mycoalert [Lonza] after each batch of assay vial preparation). Compounds were titrated in DMSO and pre-incubated with TNF at a concentration giving half maximal response (10 pM for human or 20 pM for mouse) or the anti-human TNFR1 agonist antibody (R&D Systems. #AF 225) for 1 h. Cells were added to the compound/stimulus mixture and further incubated for 18 h. SEAP was measured using the colorimetric substrate HEK-Blue Detect^TM or QUANTI-Blue^TM from InvivoGen. Percentage inhibitions for compound dilutions were calculated between a DMSO control and maximum inhibition (by excess anti-TNF biologic, or NF-κB inhibitor–TPCA-1 [Tocris #2559, R&D Systems]). The IC50 was determined as the point of inflexion between the fitted minimum and maximum of the compound dose response curve, calculated using 4PL fitted curve. Mean IC50s are reported as a mean of at least two experiments. Dose response curves for TNF and the anti-human TNFR1 agonist antibody are shown in Supplementary Fig. 9. […]
In this assay reduction is luminescence is due to cell killing by TNF and inhibition causes increased luminescence. […]

Data set [1] addresses T3, TNF (Homo sapiens, UniProt P01375). The data set can be described thus: Thermal denaturation assay of thermal stability. Also on record: stabilise an asymmetrical form of the soluble TNF trimer. In kind it is binding. As for the experimental part:
A fluorescence probed thermal denaturation assay was performed to assess the effect of the compounds on the thermal stability of TNF (or other members of the TNF family) as a measure of compound binding. The reaction mixture contained 5 µL of 30× SYPRO® Orange dye (Invitrogen) and 5 µL of TNF (at 1 mg/mL), 37.5 μL PBS, pH 7.4 and 2.5 μL of compound (at 2 mM in DMSO). The mixture (10 µL) was dispensed in quadruplicate into a 384 PCR optical well plate and was run on a 7900HT Fast Real-Time PCR System ([…]). The PCR System heating device was set at 20 °C to 99 °C with a ramp rate of 1.1 °C min^−1; fluorescence changes in the wells were monitored by a CCD device. The fluorescence intensity increase was plotted as a function of temperature and the Tm calculated as the midpoint of this denaturation curve (determined as the point of inflection).
Target sequence in this assay (P01375 77-233 limits assumed): as the sequence (P01375 77-233 L133F) above, with F57L counted along it

Data set [2] has as its target T3, TNF. The data set can be described thus: TNF reporter gene assay HEK-293, human TNF. The class given is cell-based. The settings on record: 10 pM wild-type TNF; HEK NFκΒ reporter. Also on record: stabilise an asymmetrical form of the soluble TNF trimer. As to the method:
Stimulation of HEK-293 cells by TNF leads to activation of the NF-κB pathway. The HEK-Blue^TM CD40L SEAP (secreted embryonic alkaline phosphatase) reporter cell line used to determine TNF activity (InvivoGen, #hkb-CD40, cells were described as mycoplasma free when purchased and were tested using Mycoalert [Lonza] after each batch of assay vial preparation). […] Cells were added to the compound/stimulus mixture and further incubated for 18 h. SEAP was measured using the colorimetric substrate HEK-Blue Detect^TM or QUANTI-Blue^TM from InvivoGen. […] The IC50 was determined as the point of inflexion between the fitted minimum and maximum of the compound dose response curve, calculated using 4PL fitted curve. Mean IC50s are reported as a mean of at least two experiments.
Target sequence in this assay (P01375 77-233 limits assumed): as the sequence (P01375 77-233 L133F) above, with F57L counted along it
For orientation: Reporter assays use an easily measured gene product as a stand-in for the process of interest.

Data set [3] deals with T3, TNF. Description: Biacore kinetics of binding. Also on record: Human TNF (CID2043, UniProt P01375 residues 77–233); 6XHis-Smt3 (N, cleaved yes); host or cells: E. coli TOP10. Particulars: SPR single-cycle, linked TNF with n-terminal HKH tag. As to the method:
Surface plasmon resonance using a Biacore T100/T200 was used to measure the association rate constant (ka), the dissociation rate constant (kd) and the affinity (KD) of compounds. TNF (VCID 2043 Beryllium) was immobilised to approximately 5 kRU as described above and equilibrated for at least 5 h in HBS P + buffer with 5% DMSO. UCB-6876 was serially diluted from 187.5 µM, flowing over the immobilised TNF at 50 µL/min for 3 min before allowing full dissociation under flow for at least 6 min. […] […] The compounds were allowed to dissociate for 2 h under flow.
Target sequence in this assay (P01375 with tags, fused parts or gaps): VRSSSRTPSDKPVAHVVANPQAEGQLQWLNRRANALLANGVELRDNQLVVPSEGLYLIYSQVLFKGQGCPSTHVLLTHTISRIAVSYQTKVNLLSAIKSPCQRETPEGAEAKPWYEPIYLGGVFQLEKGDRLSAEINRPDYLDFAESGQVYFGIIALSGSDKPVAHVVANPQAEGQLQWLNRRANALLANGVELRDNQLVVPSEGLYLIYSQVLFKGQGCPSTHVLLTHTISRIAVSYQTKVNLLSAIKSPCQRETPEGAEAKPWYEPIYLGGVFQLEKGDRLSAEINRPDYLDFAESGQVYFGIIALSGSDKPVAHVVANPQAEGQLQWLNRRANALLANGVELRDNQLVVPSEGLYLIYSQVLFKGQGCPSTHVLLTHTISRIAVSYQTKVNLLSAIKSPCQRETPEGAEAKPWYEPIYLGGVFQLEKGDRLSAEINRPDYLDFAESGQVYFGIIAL

Data set [4] has as its system TNFR1 extracellular domain and control proteins. The data set can be described thus: Biacore SPR binding to control surfaces. Particulars: capture antibody plus TNFR1, capture antibody. The source says:
(§1) BIA (Biomolecular Interaction Analysis) uses SPR to measure the binding of compounds to a protein immobilised on a chip surface. For this purpose a Biacore A100/4000 (GE Healthcare) was used. A CM5 sensor was immobilised via amine coupling on flow cell 1 with human Fc antibody domain (10k response units; kRU) and TNFR-Fc captured (2.5 kRU), flow cell 2 TNF (11 kRU), flow cell 3 was left blank (for non-specific binding), flow cell 4 TNFR-Fc (10 kRU), and flow cell 5 goat anti-human Fc 16 kRU). The sensor surface was then equilibrated in HBS-P (10 mM HEPES pH 7.4, 0.15 M NaCl, 0.005% Surfactant P20, BIAcore, GE Healthcare) with 5% DMSO for at least 5 h. Compounds were diluted from 100 mM stocks into DMSO matched buffer and then flowed over the immobilised flow cells at a concentration of 250 µM at the maximum flow rate of 30 μL/min. Background subtraction binding curves were analysed using the Biacore A100 BIA evaluation software version 1.1 following standard procedures.

The nature of data set [5]: Dynamic light scattering (colloidal aggregation). In kind it is physicochemical. Particulars: 100 μM; no detergent; 25°C; n=5. As to the method:
Dynamic light scattering (DLS) experiments have been performed with compounds […]
baseline control and positive control (miconazole at 100 μM) were included. The radius data […]
compound in the absence of detergent.
DLS data (Malvern Nano ZS). Each sample (150 μl) was measured 5 times in a low volume disposable sizing cuvette at 25°C using 173º non-invasive backscatter (NIBS). […]

The target in data set [6] is T3, TNF. The data set can be described thus: Biacore SPR fragment binding to immobilised TNF. Also on record: Human TNF (CID2043, UniProt P01375 residues 77–233); 6XHis-Smt3 (N, cleaved yes); host or cells: E. coli TOP10. The settings on record: SPR fragment screen; concentration-dependent response.
From the text: as §1
Target sequence in this assay (P01375 77-233): as the sequence (P01375 77-233 L133F) above, with F57L counted along it
On the technique in general: In SPR one partner is held on a chip, and binding of the other changes the refractive index at the surface.

Another data set addresses T4, mouse TNF (Mus musculus, UniProt P06804).
T4 construct: stabilise an asymmetrical form of the soluble TNF trimer
T4 sequence (P06804 80-235 limits assumed): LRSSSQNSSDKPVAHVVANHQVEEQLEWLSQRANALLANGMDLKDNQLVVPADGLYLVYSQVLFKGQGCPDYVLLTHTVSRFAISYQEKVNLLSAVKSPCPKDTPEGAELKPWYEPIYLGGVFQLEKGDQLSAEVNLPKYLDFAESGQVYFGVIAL
Description: Mouse TNF induced neutrophil recruitment in vivo. Particulars: Etanercept 30 mg/kg i.v.; mouse TNF; individual mice. As for the experimental part:
All in vivo studies were reviewed by an internal Ethical Review Body (ERB) and conducted in accordance with the Animals (Scientific Procedures) Act 1986, EU Directive 2010/63/EU. […] Anti-TNFα biologics, CDP571[21] (10 mg/kg) and etanercept (30 mg/kg), diluted in PBS, were dosed intravenously prior to human and mouse TNF challenge. Two hours after the TNF challenge, mice were sacrificed and the peritoneal cavity lavaged with 3 mL of FACS buffer. An aliquot (0.3 mL) of lavage fluid was used to assess the number CD45^+GR1^+ cells by flow cytometry. Briefly, the cells were treated with ACK lysis buffer, washed and suspended in FACS buffer prior to staining with FITC anti-mouse CD45 and PE anti-mouse GR1. Data are shown as mean ± standard error of the number of CD45^+GR-1^+ cells. Statistical significance (*p < 0.05, **p < 0.01, ****p < 0.0001) was determined using one-way ANOVA with Dunnett’s multiple comparison test.

In data set [7] the target is T5, Mouse TNF (mouse), P06804.
T5 chain: T4 sequence (P06804 80-235 limits assumed)
Description: native MS; mouse and human TNF, each 20 µM in 20 mM ammonium acetate pH 7.4, mixed 1:1 and analysed at various time points; no compound; nanospray, Exactive Plus EMR. The settings on record: remark: other sources report otherwise.

For data set [8], the target named is T5, Mouse TNF (mouse), P06804. The data set can be described thus: native MS; human TNF pre-incubated (saturated) with UCB-6876, then mixed 1:1 with mouse TNF; 20 mM ammonium acetate, 4% DMSO in the compound stock; various time points. Particulars: remark: other sources report otherwise.

Values joined by “and” are separate entries in the source; they are usually repeats but may differ in a detail not shown here. Equal entries are not always repeated.

The values that follow come from publication PMC6923382, “Small molecules that inhibit TNF signalling by stabilising an asymmetric form of the trimer” (Nature Communications, 2019).

As usually defined, the Kd is the equilibrium constant for the complex coming apart. One may read the stoichiometry N as a count of units in the complex or per binding partner.

T1 sequence (P01375 77-233 limits assumed): as the sequence (P01375 77-233 L133F) above, with F57L counted along it
T1 sequence (P19438 43-184 partner limits assumed): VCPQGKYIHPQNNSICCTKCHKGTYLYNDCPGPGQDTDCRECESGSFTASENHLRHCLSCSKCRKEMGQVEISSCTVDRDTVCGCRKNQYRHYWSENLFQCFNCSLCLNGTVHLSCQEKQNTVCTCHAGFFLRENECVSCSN

For `Cc1ccc(C)c(Cn2c(C(O)c3ccncc3)nc3ccccc32)c1` (stereo not shown) [UCB-5307], the “number of TNFR1 bound per hTNF trimer, hTNF preloaded with compound” value on hTNF/hTNFR1 complex (90-690 μM compound overnight, then 3.2-fold excess hTNFR1) is reported as “dose-dependent shift from three receptors bound to two”. For the same molecule, the “effect on preformed hTNF/hTNFR1 complex” value on hTNF/hTNFR1 complex (90-690 µM compound, 3.2-fold excess hTNFR1) is “dislodging one of the receptors”. On TNF (L57F), the “inhibition of L57F TNF” value is on record as “did not inhibit”. Also, the “Tm difference (hTNF + compound) - (hTNF+DMSO)” value at TNF [1] (DMSO 5%) was determined as 12.2 °C. The “Tm (mean ± SD)” value at TNF [1] (hTNF + DMSO (5%) + compound, n=4 replicates) turned out to be 72.9 ± 0.6 °C. At TNF [1] (inhouse hTNF 5% DMSO + compound, 4 wells), the Tm1 Average is 72.9 °C. Besides, the “Unreviewed - Tm1” value at TNF [1] (single wells, inhouse hTNF 5% DMSO + compound, listed as 1445307-000, in °C) is 72.4 and 73.5 and 73.2. The “inhibition of wild-type TNF” value on TNF [2] is “inhibited”. Also, at TNF [3], the “kd (off-rate)” value was 5.76e-05 s⁻¹. Moreover, at TNF [3] (read-out: KD), the Kd was found to be 9 nM.

On to `Cc1ccccc1Cn1c(CO)nc2ccccc21` [UCB-6786], for which, in data set [4], the “binding to TNFR1 and control proteins (selectivity)” value was “selectivity over the TNFR1 extracellular domain and control proteins”. Further, in data set [5], the “colloidal aggregation (DLS radius)” value was “no evidence of colloidal aggregation”. Moreover, the “binding to immobilised TNF” value at TNF [6] was “bound to TNF”.

Turning to Etanercept [reference compound], the “CD45+ GR-1+ cells/mL in the peritoneal cavity” value at mouse TNF was 6123.9 cells/mL and 7203.0 cells/mL and 3131.9 cells/mL and 6069.0 cells/mL and 1965.3 cells/mL.

B1: Mouse TNF, P06804 80-235 (ligand)
chain: T4 sequence (P06804 80-235 limits assumed)
Regarding B1, the stoichiometry N in [7] and in data set [8] was 3 in each case.
